“And” between values parts separate entries of the source, which are not always exact repeats. Equal entries are not always repeated.
How the values were obtained:
[1] = biological target: T1, ARF1 (Homo sapiens, UniProt P84077); assay: GST-GGA3-PBD pull-down of AT1R-mediated HA-ARF1 activation; assay type: cell-based; conditions: for ARF1-GTP/ARF1: GST-GGA3-PBD, listed as Comp 21
T1 construct: expressed in transfected cells; host or cells: HEK293SL
Description: Activation of ARF1, ARF6, Ras, and Rho were assessed by using GST pull-down assays. HEK293SL cells were transiently transfected with 3 µg AT1R-flag only (Ras and Rho) or along with 500 ng HA-ARF6 (ARF6) or HA-ARF1 (ARF1). Forty-eight hours later, the HEK293 or MDA-MB-231 cells were serum-starved for 4 h with DMEM containing 20 mM HEPES then pretreated with DMSO or Rasarfin (50 µM) for 30 min. Cells were then stimulated with 1 µM AngII or 100 ng/ml EGF for 0 and 2 min. Cells were then washed once with ice-cold PBS and lysed for 30 min at 4 °C in 300 µl of lysis buffer (pH 7.5, 50 mM Tris-HCl, 140 mM NaCl, 5 mM MgCl2, 10% glycerol (v/v), 1% Nonidet P-40 (v/v), 1 mM dithiothreitol) supplemented with protease inhibitors (1 mM phenylmethyl-sulfonyl fluoride (PMSF), 10 µg/ml leupeptin, 5 µg/ml aprotinin, 1 µg/ml pepstatin A) and phosphatase inhibitors (20 mM NaF, 0.025 mM pervanadate). The samples were cleared by centrifugation and 30 µl (cell lysates) was kept for assessing total protein contents. The remaining was transferred to fresh tubes with 20 µg of either GST, GST-GGA3-PBD, GST-Raf1-RBD or GST-Rhotekin-RBD coupled to glutathione resin and rotated for 1–2 h at 4 °C. Beads were washed twice with lysis buffer and proteins were eluted in 25 μl 2x laemmli buffer by heating at 65 °C for 15 min. Proteins were resolved on 14% SDS-PAGE, transferred to nitrocellulose membranes, and immunoblotted for HA, Ras, RhoA, H-Ras, or ARF6. ImageLab 5.2 software was used to quantify the digital blots as fold of the amount of pulled down protein over total protein. Uncropped coomassie gels and immunoblots are provided in the Source Data file.

[2] = test system: PI3K/Akt; assay: PI3K/Akt BRET sensor (Akt (PH)-RlucII / rGFP-CAAX), EGFR-mediated; assay type: cell-based, human
Description: HEK293SL cells were seeded at a density of 7.5 × 10^5 cells per 100-mm dish and 24 h later, transiently transfected as such. For receptor internalization experiments, cells were transfected with 0.12 μg AT1R-RlucII, B2R-RlucII, or β2AR-RlucII and 0.48 μg of either rGFP-CAAX (to assess removal from the PM) or rGFP-FYVE (to assess accumulation in the endosomes). For β-arrestin recruitment assays, cells were transfected with 0.48 μg of receptor-YFP along with 0.12 μg of β-arrestin-RlucII. For β-arrestin/AP-2 binding experiments, cells were transfected with 1 μg Flag-AT1R, 1 μg β2-Adaptin-YFP, and 0.12 μg β-arrestin2-RlucII. For G protein activation, cells were transfected with 3 μg of sp-Flag-AT1R along with either 4.5 μg of the Gαq-polycistronic BRET sensor or 0.24 μg of the Gαi3-RlucII and 0.6 μg of GFP10-Gγ2 and Gβ1 sensors or 0.12 μg PKN-RBD-RlucII and 0.48 μg of rGFP-CAAX. For PKC activation, cells were transfected with 3 μg of sp-Flag-AT1R and 0.18 μg of the PKC sensor. For GTPase activation experiments, cells were transfected with 1 μg Flag-AT1R, 0.48 μg of rGFP-CAAX, and either 0.12 μg of GGA3-PBD-RlucII, PAK-CRIB-RlucII or Raf-RBD-RlucII. For biosensor validation experiments, cells were additionally transfected with 500 ng Flag-K-Ras-WT, Flag-K-Ras-G12V, Flag-K-Ras-SOS-CAAX, HA-ARF6-WT, HA-ARF6-T27N, Myc-Rac1-WT, Myc-Rac1-Q61L or Myc-Rac1-T17N. For PI3K/Akt activation experiments, cells were transfected with 0.48 μg of rGFP-CAAX and 0.12 μg of Akt (PH)-RlucII. After 18 h of transfection, the media was replaced and cells were divided for subsequent experiments. Cells were detached and seeded onto poly-L-ornithine-coated 96-well flat white bottom plates (BrandTech Scientific) at a density of 2.5 × 10^4 cells per well in media. The next day, cells were washed once with Tyrode’s buffer (140 mM NaCl, 2.7 mM KCl, 1 mM CaCl2, 12 mM NaHCO3, 5.6 mM D-glucose, 0.5 mM MgCl2, 0.37 mM NaH2PO4, 25 mM HEPES, pH 7.4) and left in Tyrode’s buffer. For kinetics of β-arrestin recruitment or β-arrestin binding to receptor and AP-2 experiments, cells were serum starved for 30 min, pretreated with 21 (50 µM) or Barbadin (100 µM) for 30 min, stimulated with 100 nM AngII or 1 µM BK and BRET signals were monitored at indicated times using a Victor X Light plate reader (PerkinElmer). Coelenterazine H (final concentration of 5 µM) was added 3–5 min prior to BRET measurements. Filter set was 460/80 nm and 535/30 nm for detecting the RlucII Renilla luciferase (donor) and YFP (acceptor) light emissions, respectively. The BRET ratio was determined by calculating the ratio of the light emitted by YFP over the light emitted by the RlucII. For G protein activation, cells were serum starved, pretreated with compounds for 30 min, stimulated with 100 nM AngII for 2 min (Gαq, Gαi3, and Rho sensors) or 5 min (PKC sensor). For the kinetics of GTPase and PI3K/Akt activation, cells were serum starved, pretreated with 21 (50 µM) or Wortmannin (200 nM) for 30 min, stimulated with ligand (100 nM AngII or 100 ng/ml EGF) and BRET signals were monitored at indicated times. For concentration-response curves, cells were serum-starved, pretreated with various concentrations of compounds for 30 min and stimulated with ligand (100 nM AngII, 1 µM BK, 10 µM Isoproterenol (Iso) or 100 ng/ml EGF) in Tyrode’s buffer for 30 min for receptor internalization, 10 min for ARF6, 2 min for Rac and Rho activation and 5 min for Ras activation and PI3K/Akt activation. BRET signals were monitored using a Synergy2 (BioTek) microplate reader and coelenterazine 400a (final concentrations of 5 µM) added 3–5 min prior to BRET measurements. Filter set was 410/80 nm and 515/30 nm for detecting the RlucII Renilla luciferase (donor) and rGFP/GFP10 (acceptor) light emissions, respectively. The BRET ratio was determined by calculating the ratio of the light emitted by rGFP/GFP10 over the light emitted by the RlucII.

T1 sequence (P84077 whole entry): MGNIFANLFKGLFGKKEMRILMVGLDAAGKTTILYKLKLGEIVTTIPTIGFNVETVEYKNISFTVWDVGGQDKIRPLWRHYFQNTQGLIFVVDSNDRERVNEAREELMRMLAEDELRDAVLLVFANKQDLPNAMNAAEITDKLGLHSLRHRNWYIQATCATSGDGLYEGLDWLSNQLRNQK

## CC(C)C(=O)N1CCN(c2ccc(NC(=O)c3cc4ccccc4o3)cc2Cl)CC1 [Compound 21]
[1]; 50 μM
  effect on AT1R-dependent ARF1 activation: no effect
[1]; AngII
  ARF1-GTP/ARF1: 0.143 and 0.2667 and 0.2223
[1]; Ctrl
  ARF1-GTP/ARF1: 0.07407 and 0.04303 and 0.06878
[2]; Homo sapiens, read-out: potency for inhibition of EGFR-mediated Akt (BRET assay)
  IC50: 4 to 5 µM
[2]; Log [Comp 21] (M) -4.30103
  EGF-promoted BRET: 0.039 and 0.07107 and 0.056
[2]; Log [Comp 21] (M) -5.32288
  EGF-promoted BRET: 0.1533 and 0.2873 and 0.2883
[2]; Log [Comp 21] (M) -6
  EGF-promoted BRET: 0.6727 and 0.6567 and 0.6163
[2]; Log [Comp 21] (M) -6.32288
  EGF-promoted BRET: 0.7007 and 0.6398 and 0.6137
[2]; Log [Comp 21] (M) -7
  EGF-promoted BRET: 0.7123 and 0.6372 and 0.6493

Reference: publication PMC8333425, “Discovery of a dual Ras and ARF6 inhibitor from a GPCR endocytosis screen” (Nature Communications, 2021)
